Tests used:
Format in all cases: in vivo, mouse
aged (18-month-old) mice [1] = experiment: Cardiotoxin (CTX)-induced muscle injury, transcript levels, aged mice; conditions: for MyoD transcript level: 3 and 7 days
Procedure: (§1) Mice were i.p injected with buprenorphine (Centravet, 0.1 mg/kg) 30 minutes before injury and the day after. The day of the injury, mice were anesthetized with isoflurane inhalation and hindlimbs were shaved. Then, 10 μM of cardiotoxin (CTX, Latoxan, #L8102) was injected through two injections of 25 μl into the left tibialis muscle and two injections of 50 μl into the left gastrocnemius muscle, using a 22-gauge needle (Hamilton). Mice were euthanized 3 and 7 days after injury by cervical dislocation, muscles (PBS- and CTX-injected) were cut in two parts, one being snap frozen into liquid nitrogen for total RNA extraction and the other part being embedded into OCT, frozen in isopentane cooled with liquid nitrogen for histological analysis.

young (3-month-old) mice = experiment: Cardiotoxin (CTX)-induced muscle injury, transcript levels, young mice
Procedure: as §1

aged (18-month-old) mice [2] = experiment: Cardiotoxin (CTX)-induced muscle injury, histology of tibialis (cross-sectional area, centrally nucleated fibers)
Procedure: Impairment of muscle regeneration can contribute to age-related muscle weakness. This is particularly true in aged individuals who engage in physical activity. Exercise-induced muscle hypertrophy is linked to the capacity of muscle stem cells to be activated and promote regeneration.
Mice were i.p injected with buprenorphine (Centravet, 0.1 mg/kg) 30 minutes before injury and the day after. The day of the injury, mice were anesthetized with isoflurane inhalation and hindlimbs were shaved. […]
Mouse muscle samples were dissected and cryopreserved in OCT frozen in liquid nitrogen cooled isopentane. […] Images were captured using a digital camera (Nanozoomer, Hamamatsu) attached to a motorized fluorescence microscope or using Olympus VS120 Virtual Microscopy Slide Scanning System. The area covered by eMHC-positive fibers and degenerated area was determined manually across the entire sections using the VS-ASW FL software measurement tools. The size of myofibers with central nuclei was calculated from laminin/DAPI staining on all fibers of the section and area determination were performed across the entire sections, using an automated image processing algorithm developed internally using the MetaXpress software (Molecular Devices).

[3] = tibialis anterior, 7 days, both BGE-105 dosages

CSCC[C@H](NC(=O)[C@@H]1CCCN1C(=O)CNC(=O)[C@H](CCCCN)NC(=O)[C@H](Cc1c[nH]cn1)NC(=O)[C@H](CO)NC(=O)[C@H](CC(C)C)NC(=O)[C@H](CCCNC(=N)N)NC(=O)[C@@H]1CCCN1C(=O)[C@H](CCCNC(=N)N)NC(=O)[C@@H]1CCC(=O)N1)C(=O)N1CCC[C@H]1C(=O)N[C@@H](Cc1ccccc1)C(=O)O [Pyr^1-Apelin-13]
MyoD transcript level (aged (18-month-old) mice [1]; gastrocnemius, both BGE-105 dosages): significant increase | Myf5 transcript level (aged (18-month-old) mice [1]; gastrocnemius, 3 or 7 days): no significant change | MyoG transcript level (aged (18-month-old) mice [1]; gastrocnemius, 3 or 7 days): no significant change | Pax7 transcript level (aged (18-month-old) mice [1]; gastrocnemius, 3 or 7 days): no significant change | MyHC8 transcript level (aged (18-month-old) mice [1]; gastrocnemius, any time point): does not show a change | MyoD transcript level (aged (18-month-old) mice [1]; tibialis anterior, both BGE-105 dosages): significant increase | Pax7 transcript level (aged (18-month-old) mice [1]; tibialis anterior, 7 days, BGE-105 50 and 200 mg/kg/day P.O., apelin 0.5 mol/kg/day injection): significant increase | MyHC3 transcript level (aged (18-month-old) mice [1]; [3]): significant increase | MyoG transcript level (aged (18-month-old) mice [1]; [3]): significant increase | Myf5 transcript level (young (3-month-old) mice; gastrocnemius, 3 or 7 days): no change | MyoD transcript level (young (3-month-old) mice; gastrocnemius, 3 or 7 days): no change | MyoG transcript level (young (3-month-old) mice; gastrocnemius, 3 or 7 days): no change | Pax7 transcript level (young (3-month-old) mice; gastrocnemius, 3 or 7 days): no change | MyHC8 transcript level (young (3-month-old) mice; gastrocnemius, 3 days, both BGE-105 dosages): non-significant increase | MyHC3 transcript level (young (3-month-old) mice; tibialis, 3 or 7 days): no significant change | MyHC8 transcript level (young (3-month-old) mice; tibialis, 3 or 7 days): no significant change | Myf5 transcript level (young (3-month-old) mice; tibialis, 3 or 7 days): no difference | MyoD transcript level (young (3-month-old) mice; tibialis, 3 or 7 days): no significant increase | MyoG transcript level (young (3-month-old) mice; tibialis, 3 or 7 days): no difference | Pax7 transcript level (young (3-month-old) mice; tibialis, 3 or 7 days): no change | cross-sectional area of the tibialis (aged (18-month-old) mice [2]; 3 and 7 days post cardiotoxin, BA1 (50 mg/kg/d) and BA2 (200 mg/kg/d)): significant increase | amount of centrally nucleated myofibers (CNM) (aged (18-month-old) mice [2]; 18-month-old mice after cardiotoxin, significant at the higher BGE-105 dose (200 mg/kg/day)): significant increase

— patent publication US20240122926A1, “APELIN RECEPTOR MODULATORS FOR TREATING MUSCLE CONDITIONS” (priority 2022, published 2024)
